Assay results taken from article PMC10703812, “Understanding the molecular mechanisms of odorant binding and activation of the human OR52 family” (Nature Communications, 2023).
Several values for one entry are separate records, joined by “and”; a condition that tells them apart may be missing. Equal values may be shown once.

What was measured:
OR52cs-bRIL-ICL3 = assay: cAMP signaling assay, bRIL chimera; assay type: cell-based, human; parameters: cAMP response: scale not given here; details: for cAMP response: Fig.S11a source data
Text: For the structural study of apo state OR52cs, the chimeric construct of full-length OR52cs (1–313)[23] was designed to insert bRIL between A226 and L227 with a linker sequence derived from adenosine receptor A2a, as previously described. For purification of active state OR52cs, full-length OR52cs (1–313) was used. Each construct was subcloned into the pFastBac HT B vector with a Lucy signal sequence ([…])[17] and FLAG peptide at the N-terminus. Each construct also included an eGFP with 10xHis-tag, which was fused to the C-terminus of OR52cs with a HRV 3C protease cleavage sequence.
(§1) Hana3A cells were seeded on 96-well white microplates and transfected with OR52cs or the corresponding mutants and cAMP sensor (Promega). The medium was exchanged with CO2-independent medium (Gibco) supplemented with 0.375 mg ml^−1 D-luciferin (Nanolight) 48 h after infection, and cells were incubated in the dark at 20 °C for 2 h. Basal luminescence was detected using a Tristar 2 LB 942 multimode reader (Berthold) until it reached a plateau. Subsequently, various concentrations of odorants and forskolin (Sigma-Aldrich) were added to each well, and luminescence was measured again. Data were analyzed and plotted using GraphPad Prism 9.4.1.

OR52cs [1] = assay: CRE luciferase assay in Hana3A cells; assay type: cell-based, human; details: Fig.S7b, single experiments
Experimental: (§2) For cAMP assay, CRE luciferase assay, and surface ELISA, the full-length OR52cs construct was cloned into the pcDNA3.1 vector. The Lucy signal sequence and FLAG peptide sequence were added to the N-terminus. Mutant constructs were generated by site-directed mutagenesis. For BRET assay, eYFP was added at the C-terminus of OR52cs with a GGGGS linker. Rluc was added to Gα for resonance partner (after L99 for Gαs, and I100 for Gαolf, respectively, with GGGGS linker back and forth).
Hana3A cells were seeded on 96-well white microplates (SPL) and transfected with plasmids encoding CRE-luciferase, OR52cs or R265^6.59A mutant, Renilla luciferase, RTP1S, and Ric8b at a […] ratio 24 h after seeding. 48 h after infection, cells were treated with odorants and incubated at 37 °C for 4 h. Luminescence was measured using a Tristar 2 LB 942 multimode reader (Berthold). All values were divided by the Renilla luciferase activity to normalize the effect of cell confluence. All data were analyzed using GraphPad Prism 9.4.1.

OR52cs D212A = assay: cAMP signaling assay, mutant; assay type: cell-based, human; parameters: scale not given here; details: Fig.S13b source data, single experiments
Experimental: as §2, §1

[2] = system: pcDNA (Null) Hana3A cells; assay: cAMP signaling assay, no receptor (Null / pcDNA); assay type: cell-based; parameters: cAMP response: unit not given here; details: single experiments; for cAMP response: Fig.S11a source data
Experimental: as §1

OR52cs ΔN(1–18) = assay: cAMP signaling assay, N-tail deletion mutant; assay type: cell-based, human; details: Fig. 2c
Experimental: as §2, §1

OR52cs [3] = assay: cAMP signaling assay (cAMP sensor) in Hana3A cells; assay type: cell-based, human
Experimental: as §2, with “forth). […]” for “forth).”
as §1

OR52cs F161A = assay: cAMP signaling assay, mutant; assay type: cell-based, human; parameters: cAMP response: scale not given here; details: for cAMP response: Fig.3d source data, single experiments
Experimental: as §2, §1

OR52cs Y254A = assay: cAMP signaling assay, mutant; assay type: cell-based, human; parameters: cAMP response: scale not given here; details: for cAMP response: Fig.S13b source data, single experiments
Experimental: as §2, §1

OR52cs F253A = assay: cAMP signaling assay, mutant; assay type: cell-based, human; parameters: cAMP response: scale not given here; details: for cAMP response: Fig.S13b source data, single experiments
Experimental: as §2, §1

[4] = odorant 0.001 M (1 mM OCA), Fig.S11a left, single experiments, listed as Octanotae

CCCCCCCC(=O)O [Octanoate, octanoic acid]
OCA-induced activity (in words) (OR52cs-bRIL-ICL3; Supplementary Fig. 11): neither basal activity nor OCA-induced activity | cAMP response (OR52cs-bRIL-ICL3; odorant 9.18274e-8 M, single experiments): 2.864 and 3.4309 and 3.889 and 3.292 | cAMP response (OR52cs-bRIL-ICL3; odorant 9.18274e-7 M, single experiments): 3.793 and 3.523 and 3.621 and 3.789 | cAMP response (OR52cs-bRIL-ICL3; odorant 9.18274e-6 M, single experiments): 3.871 and 2.869 and 3.568 and 3.2862 | cAMP response (OR52cs-bRIL-ICL3; odorant 3.0303e-5 M, single experiments): 3.732 and 3.68 and 3.466 and 3.76 | cAMP response (OR52cs-bRIL-ICL3; odorant 0.0001 M, single experiments): 4.827 and 3.799 and 4.225 and 4.217 | cAMP response (raw signal) upon OCA treatment (OR52cs-bRIL-ICL3; [4]): 8475 and 9202 and 7849 and 10195 | cAMP response (OR52cs-bRIL-ICL3; odorant 0.001 M, single experiments): 5.645 and 5.075 and 5.021 and 7.052 | relative fold of CRE luciferase activity (OR52cs [1]; odorant 10 μM): 1.744 fold and 2.175 fold and 2.388 fold and 2.247 fold | relative fold of CRE luciferase activity (OR52cs [1]; odorant 50 μM): 4.124 fold and 3.914 fold and 5.3918 fold and 4.986 fold | relative fold of CRE luciferase activity (OR52cs [1]; odorant 100 μM): 4.893 fold and 4.461 fold and 6.103 fold and 6.04 fold | relative fold of CRE luciferase activity (OR52cs [1]; odorant 250 μM): 5.851 fold and 4.875 fold and 6.831 fold and 6.812 fold | relative fold of CRE luciferase activity (OR52cs [1]; odorant 500 μM): 8.532 fold and 7.359 fold and 7.746 fold and 7.343 fold | cAMP response (OR52cs D212A; odorant 9.18274e-6 M): 0.5276 and 0.521 and 1.015 | cAMP response (OR52cs D212A; odorant 3.0303e-5 M): 0.9753 and 0.9567 and 1.328 | cAMP response (OR52cs D212A; odorant 0.0001 M): 4.038 and 3.668 and 3.274 | cAMP response (OR52cs D212A; odorant 0.001 M): 42.8474 and 43.8072 and 40.1115 | cAMP response ([2]; odorant 9.18274e-8 M): 2.6643 and 2.911 and 3.873 and 3.399 | cAMP response ([2]; odorant 9.18274e-7 M): 2.569 and 3.588 and 3.415 and 3.589 | cAMP response ([2]; odorant 9.18274e-6 M): 2.895 and 3.57 and 4.047 and 4.019 | cAMP response ([2]; odorant 3.0303e-5 M): 3.574 and 3.7923 and 3.945 and 4.033 | cAMP response ([2]; odorant 0.0001 M): 3.1425 and 4.269 and 3.81 and 3.981 | cAMP response (raw signal) upon OCA treatment ([2]; odorant 0.001 M (1 mM OCA), Fig.S11a left, listed as Octanotae): 10538 and 15823 and 16065 and 17585 | cAMP response ([2]; odorant 0.001 M): 4.161 and 5.018 and 6.3304 and 6.191 | downstream signaling (in words) (OR52cs ΔN(1–18)): loss of downstream signaling | EC50 (OR52cs [3]; Supplementary Fig. 13b): 7 µM | X-fold over OR52cs (relative fold of EC50) (OR52cs [3]; Supplementary Table 3): 1 | EC50 (OR52cs [3]; Supplementary Table 3, N=5): 7.9 µM | pEC50 ± SEM (OR52cs [3]; Supplementary Table 3, N=5): 5.230 ± 0.107 | cAMP response (OR52cs [3]; odorant 9.18274e-8 M, Fig.S11a source data, single experiments): 5.085 and 3.831 and 4.775 and 5.026 | cAMP response (OR52cs [3]; odorant 9.18274e-7 M, Fig.S11a source data, single experiments): 14.274 and 13.5525 and 12.3756 and 13.817 | cAMP response (OR52cs [3]; odorant 9.18274e-6 M, Fig.S11a source data, single experiments): 55.4145 and 67.6331 and 64.1017 and 55.2862 | cAMP response (OR52cs [3]; odorant 3.0303e-5 M, Fig.S11a source data, single experiments): 86.9919 and 78.2813 and 84.5166 and 65.845 | cAMP response (OR52cs [3]; odorant 0.0001 M, Fig.1a source data, single experiments): 127.982 and 109.844 and 107.02 and 115.524 and 104.582 | cAMP response (OR52cs [3]; odorant 0.0001 M, Fig.S11a source data, single experiments): 98.5501 and 101.54 and 117.496 and 98.6522 | cAMP response (raw signal) upon OCA treatment (OR52cs [3]; [4]): 146668 and 160587 and 152997 and 131980 | cAMP response (OR52cs [3]; odorant 0.001 M, Fig.1a source data, single experiments): 103.349 and 98.3823 and 101.697 and 99.3544 and 97.2175 | cAMP response (OR52cs [3]; odorant 0.001 M, Fig.S11a source data, single experiments): 95.2215 and 104.803 and 111.594 and 89.2504 | X-fold over OR52cs (relative fold of EC50) (OR52cs F161A; Supplementary Table 3): 5.3 | EC50 (OR52cs F161A; Supplementary Table 3, N=3): 42 µM | pEC50 ± SEM (OR52cs F161A; Supplementary Table 3, N=3): 4.214 ± 0.075 | cAMP response (OR52cs F161A; odorant 3.0303e-5 M): 40.1826 and 27.0053 and 36.2901 | cAMP response (OR52cs F161A; odorant 0.0001 M): 77.0461 and 49.0263 and 69.6028 | cAMP response (OR52cs F161A; odorant 0.001 M): 102.629 and 63.8026 and 79.1192 | EC50 (OR52cs Y254A; Supplementary Fig. 13b): 0.6 µM | cAMP response (OR52cs Y254A; odorant 9.18274e-8 M): 3.215 and 2.4896 and 3.9476 | cAMP response (OR52cs Y254A; odorant 9.18274e-7 M): 17.867 and 17.7491 and 20.6138 | cAMP response (OR52cs Y254A; odorant 9.18274e-6 M): 27.7636 and 29.4886 and 28.529 | cAMP response (OR52cs Y254A; odorant 3.0303e-5 M): 29.9943 and 28.2884 and 30.9686 | cAMP response (OR52cs Y254A; odorant 0.0001 M): 31.1114 and 30.9026 and 31.9237 | cAMP response (OR52cs Y254A; odorant 0.001 M): 30.3248 and 30.6953 and 33.5912 | EC50 (OR52cs F253A; Supplementary Fig. 13b): 219 µM | cAMP response (OR52cs F253A; odorant 9.18274e-8 M): 0.6755 and 1.259 and 1.115 | cAMP response (OR52cs F253A; odorant 9.18274e-7 M): 1.327 and 1.6492 and 1.457 | cAMP response (OR52cs F253A; odorant 9.18274e-6 M): 3.718 and 4.351 and 3.597 | cAMP response (OR52cs F253A; odorant 3.0303e-5 M): 11.1366 and 13.9484 and 11.2845 | cAMP response (OR52cs F253A; odorant 0.0001 M): 38.3735 and 42.0381 and 35.9654 | cAMP response (OR52cs F253A; odorant 0.001 M): 106.487 and 105.397 and 81.8862
